Source: article PMC6915999, “Simultaneous hydrolysis with lipase and fermentation of rapeseed cake for iturin A production by Bacillus amyloliquefaciens CX-20” (BMC Biotechnology, 2019)

System: lipase
Test: Stability of iturin A to lipase in fermentation broth
Format: in vitro ADME
Conditions: RSM (76.52 g/L) fermentation broth after 72 h fermentation; 5 U/mL lipase added vs no lipase; continued at 28 °C, 220 rpm; iturin A concentration at 0, 24, 48 and 72 h by HPLC (210 nm); triplicate; Fig. 5
Description: Iturin A was extracted according to a reported method. Briefly, 0.3 mL of the mixed fermentation broth was added into a 2 mL glass tube containing 1.2 mL of methanol, shaken well and incubated for 60 min. The mixture was centrifuged at 12,000 rpm for 20 min, and the supernatant was filtered through a 0.22 μm pore-size hydrophobic polytetrafluoroethylene (PTFE) type disposable syringe. The iturin A concentration was quantified using a Waters 2695 HPLC system equipped with an ACQUITY UPLC BEA C18 column (1.7 μm 2.1 × 100 mm, Waters, USA). A mixture of acetonitrile and 10 mM ammonium acetate (35:65, v/v) was used as the mobile phase at a flow rate of 0.3 mL/min, and the elution was monitored at 210 nm. The concentration of iturin A was analyzed and quantified using an authentic reference standard (Sigma Chemicals, St. Louis, MO, USA). The content of iturin A was measured using triplicate samples.
First, submerged fermentation were performed in 250 mL flasks with 20 mL medium, containing (per liter): 60 g glucose, 1 g K2HPO4·3H2O, 0.5 g MgSO4·7H2O, 0.005 g MnSO4·H2O, and 76.52 g RSM. After 72 h of fermentation, the fermentation broth was divided into two groups. Therein, one group supplemented with 5 U/mL lipase while the other without lipase addition. […] And the concentrations of iturin A at different time (0, 24, 48 and 72 h) were measured.

iturin A
stability of iturin A to excess lipase: almost no effect on the stability of iturin A
